{"source": "patent EP0056616A2", "about": "“Cycloheptene derivatives, process for their preparation, and pharmaceuticals containing them” (F. HOFFMANN-LA ROCHE & CO. Aktiengesellschaft, priority 1981, dated 1982)", "key": {"[1]": {"test": "Acute toxicity after single oral administration to mice", "settings": "mouse, in vivo, read-out: DL50 (the source's name)", "description": "Die nachfolgende Tabelle enthält für zwei repräsentative Vertreter der durch die allgemeine Formel I umfassten Verbindungsklasse die ED50-Werte, sowie Angaben über deren akute Toxizität bei einmaliger oraler Verabreichung an Mäusen (DL50 in m^g/k^g)."}, "[2]": {"tested_on": "Histamin-H1", "test": "Protection against lethal histamine dihydrochloride dose (histamine H1 antagonism) in guinea pigs", "assay_type": "in vivo, Meerschweinchen", "settings": "10 per dose, test substance orally 1 hour before lethal Histamin-dihydrochlorid (10 mg/kg s.c.), dose protecting 50% of animals from death, probit method", "description": "Ueberraschenderweise hat es sich gezeigt, dass die erfindungsgemässen Produkte die H1-Wirkung des Histamins zu hemmen vermögen. Die Verbindungen der allgemeinen Formel I und ihre pharmazeutisch annehmbaren Säureadditionssalze sind somit wertvolle Histamin-H antagonistische Wirkstoffe und eignen sich insbesondere zur Bekämpfung bzw. Verhütung von allergischen Reaktionen, wie beispielsweise Urtikaria, Heuschnupfen, Anaphylaxie und Arzneimittelüberempfindlichkeit. Diese Histamin-H1 antagonistischen Eigenschaften können wie nachfolgend beschrieben an männlichen und weiblichen, 240 bis 300 g schweren Meerschweinchen (SPF, Füllinsdorf) ermittelt werden:\nDen Versuchstieren (10 pro Dosis) wird während 24 Stunden vor Versuchsbeginn das Futter entzogen, wobei Wasser ad libitum erhältlich ist. Eine Stunde nach oraler Verabreichung einer Lösung der Testsubstanz (10 ml/kg) erhalten die Versuchstiere eine letale Dosis von Histamin-dihydrochlorid (10 mg/kg s.c.). Ungeschützte Tiere, d.h. nur mit Histamin-dihydrochlorid behandelte Tiere, sterben innerhalb einer Stunde. Nach Auszählen der überlebenden, geschützten'Tiere wird die ED50 nach der Probitmethode ermittelt. Die ED50 ist diejenige Dosis, die notwendig ist, um 50% der mit der Testsubstanz behandelten Tiere vor dem Tod zu schützen."}}}
{"smiles": "Cc1cccc2c1CCC1=C(CC=CC1)C2CCCN(C)C", "note": "(stereo not shown) [A, 4,5,10,11-Tetrahydro-N,N,9-trimethyl-1H-dibenzo[a,d]-cyclohepten-5-propylamin]", "values": [{"measurement": "LD50", "setting": "[1]", "value": "600 to 1200", "unit": "mg/kg"}, {"measurement": "ED50", "setting": "[2]", "value": "0,4 mg/kg p.o."}]}
{"smiles": "Cc1cccc2c1CCC1=C(CCCC1)C2CCCN(C)C", "note": "(stereo not shown) [B, 2,3,4,5,10,11-Hexahydro-N,N,9-trimethyl-1H-dibenzo-[a,d]cyclohepten-5-propylamin]", "values": [{"measurement": "LD50", "setting": "[1]", "value": "250 to 500", "unit": "mg/kg"}, {"measurement": "ED50", "setting": "[2]", "value": "0,9 mg/kg p.o."}]}
